Common to all, as to format: cell-based
For assay [1], the system named is ISG gene expression induced by MSA-2 in human THP1-Blue-ISG cells. Nature of the assay: Inhibition of MSA-2-induced ISG gene expression in human THP1-Blue-ISG cells (Quanti-Blue, OD650). The settings on record: STING agonist MSA-2 10 µM, incubated for 24 hours. The protocol: (§1) 10 µL of compound diluted with PBS/physiological saline was added to each well of a 96 well cell culture plate. The STING agonist was MSA-2, which was added to the counted cell suspension at a final concentration of 10 µM. For the control group without compounds, 10 µL of PBS/physiological saline containing 2% DMSO was added. 3 replicate wells were set in each group. THP1-Blue-ISG cells were counted and adjusted to a cell concentration of 4× 10^5/mL, and 190 µL of cells containing STING agonist were added to each well for incubation. Therefore, the final volume of each test well was 200 µL, the content of DMSO was 0.1%, and the final concentration of the compound tested was 10/3.3/1.1/0.4/0.13/0.04/0.013/0.004 µM, incubated for 24 hours. In addition, 190 µL of cells without STING agonist and 10 µL of physiological saline containing 2% DMSO were added to the blank group. 3 replicate wells were set in each group.
After 24 hours, 20 µL of culture medium was taken from each well and transferred to a new 96 well plate. 180 µL of chromogenic solution Quanti-Blue was added. The plate was placed in a 37 °C incubator. After 2 hours, the OD650 values were measured.
Result analysis: Inhibition rate (%) = (Con(OD650)−Treated(OD650))/Con(OD650) × 100% [formula]
(§2) The IC50 calculation of inhibitors was implemented using the Graphpad Prism 8 software's calculation method log (inhibitor) vs. response - Variable slope (four parameters), with a constrain interval of 0-100.

Assay [2] has as its system DMXAA induced ISG gene expression in mouse RAW-Lucia cells. The experiment in a line: Inhibition of DMXAA-induced ISG gene expression in mouse RAW-Lucia cells (QUANTI-Luc). The settings on record: STING agonist DMXAA 50 µM, incubated for 24 hours. The protocol: 10 µL of compound diluted with PBS/physiological saline was added to each well of a 96 well cell culture plate. The STING agonist was DMXAA, which was added to the counted cell suspension at a final concentration of 50 µM. For the control group without compounds, 10 µL of PBS/physiological saline containing 2% DMSO was added. 3 replicate wells were set in each group. RAW-Lucia cells were counted and adjusted to a cell concentration of 4×10^5/mL, and […] of cells were added to each well for incubation. Therefore, the final volume of each test well was 200 µL, the content of DMSO was 0.1%, and the final concentration of the compound tested was 10/3.3/1.1/0.4/0.13/0.04/0.013/0.004 µM. The final concentration of STING agonist DMXAA was 50 µM. The mixture was incubated for 24 hours. In addition, 200 µL of culture medium was added to the blank group. 3 replicate wells were set in each group.
After 24 hours, 20 µL of culture medium was taken from each well and transferred to a new 96 well plate with photopermeable bottom. 50 µL of the luciferase detection reagent QUANTI-Luc™ was added, and the […] was immediately measured (avoid light).
Result analysis: Inhibition rate (%) = (Con(Lum)−Treated(Lum))/Con(Lum) × 100% [formula]
as §2

The test system of assay [3] is ISG gene expression induced by MSA-2 in human THP1-Dual cells. Nature of the assay: Inhibition of MSA-2-induced ISG gene expression in human THP1-Dual cells (QUANTI-Luc). The settings on record: STING agonist MSA-2 10 µM, incubated for 24 hours. The protocol:
as §1, with “THP1-Dual” for “THP1-Blue-ISG”, “4×10^5/mL,” for “4× 10^5/mL,”
After 24 hours, 20 µL of culture medium for THP1-Dual cells was taken from each well and transferred to a new 96 well plate with photopermeable bottom. 50 µL of the luciferase detection reagent QUANTI-Luc™ was added, and the […] was immediately measured (avoid light). Result analysis:Inhibition rate (%) = (Con(Lum)−Treated(Lum))/Con(Lum) × 100% [formula]
as §2

Drawing on patent EP4748844A1, “AZETIDINE COMPOUND AND MEDICAL USE THEREOF” (SHANGHAI INSTITUTE OF MATERIA MEDICA, CHINESE ACADEMY OF …, priority 2023, dated 2025), this text covers IC50 for 22 molecules.

Molecules are shown by their SMILES.

Turning to `O=C(Nc1c[nH]c2ccccc12)c1ccc2c(c1)N(CC1CN(c3cc(F)cc(C(F)(F)F)c3)C1)C(=O)CS2` [Example I-9, 4-((1-(3-fluoro-5-trifluoromethylphenyl)azetidin-3-yl)methyl)-N-(1H-indol-3-yl)-3-oxo-3,4-dihydro-2H-benzo[b][1,4]thiazin-6-carboxamide], the IC50 (in general, the concentration that inhibits the measured activity by half) in assay [1] stood at 0.249 µM.

Molecule `O=C(Nc1cc2c(s1)SCC(=O)N2Cc1ccccc1)Nc1c[nH]c2ccccc12` [Example I-7, 1-(1-benzyl-2-oxo-2,3-dihydro-1H-thieno[2,3-b][1,4]thiazin-6-yl)-3-(1H-indol-3-yl)urea] returned an IC50 in assay [1] of 0.39 µM.

In assay [1], `O=C(Nc1c[nH]c2ccccc12)c1ccc2c(c1)SCC(=O)N2Cc1ccoc1` [Example I-64, 4-(furan-3-ylmethyl)-N-(1H-indol-3-yl)-3-oxo-3,4-dihydro-2H-benzo[b][1,4]thiazin-7-carboxamide] registered an IC50 of 0.139 µM.

`O=C(Nc1c[nH]c2ccccc12)c1ccc2c(c1)SCC(=O)N2Cc1ccc2occc2c1` [Example I-65, 4-(benzofuran-5-ylmethyl)-N-(1H-indol-3-yl)-3-oxo-3,4-dihydro-2H-benzo[b][1,4]thiazin-7-carboxamide]: the IC50 in assay [1] was found to be 0.057 µM.

`CC1(C)C(=C=O)N(CCc2ccccc2)c2cc(C(=O)Nc3c[nH]c4ccc(F)cc34)ccc21` [Example I-107, N-(5-fluoro-1H-indol-3-yl)-3,3-dimethyl-2-carbonyl-1-phenethylindolin-6-carboxamide]: the values for the IC50 in assay [2] and in assay [3] were 0.00272 µM and 0.147 µM, respectively.

For `CC1(C)C(=O)N(Cc2cccc3ccoc23)c2cc(C(=O)Nc3c[nH]c4ccc(F)cc34)ccc21` [Example I-126, 1-(benzofuran-7-ylmethyl)-N-(5-fluoro-1H-indol-3-yl)-3,3-dimethyl-2-oxoindolin-6-carboxamide], the IC50 in assay [2] and in assay [3] was 0.0585 µM in each case.

Take `O=C(Nc1ccc2c(c1)N(CC1CN(c3ccc4c(c3)OCO4)C1)C(=O)CS2)Nc1c[nH]c2ccccc12` [Example I-13, 1-(4-((1-(benzo[d][1,3]dioxolan-5-yl)azetidin-3-yl)methyl)-3-oxo-3,4-dihydro-2H-benzo[b][1,4]thiazin-6-yl)-3-(1H-indol-3-yl)urea]: the IC50 in assay [1] amounted to 0.391 µM.

Take `CC1(C)C(=O)N(Cc2csc(C(F)(F)F)c2)c2cc(C(=O)Nc3c[nH]c4ccccc34)ccc21` [Example I-102]: the IC50 was 0.0106 µM in assay [2] and 0.0208 µM in assay [3].

Take `O=C(Nc1c[nH]c2ccccc12)c1cc2c(s1)SCC(=O)N2Cc1ccsc1` [Example I-112, N-(1H-indol-3-yl)-2-oxo-1-(thien-3-ylmethyl)-2,3-dihydro-1H-thieno[2,3-b][1,4]thiazin-6-carboxamide]: the figures for the IC50 in assay [2] and in assay [3] were 0.0419 µM and 0.0465 µM, respectively.

`O=C(Nc1c[nH]c2ccccc12)c1cc2c(s1)SCC(=O)N2Cc1ccoc1` [Example I-117, 1-(furan-3-ylmethyl)-N-(1H-indol-3-yl)-2-oxo-2,3-dihydro-1H-thieno[2,3-b][1,4]thiazin-6-carboxamide]: the IC50 in assay [2] came to 0.0767 µM; in assay [3] it was 0.085 µM.

As to `CC1(C)C(=O)N(CCc2ccsc2)c2cc(C(=O)Nc3c[nH]c4ccccc34)ccc21` [Example I-108, N-(1H-indol-3-yl)-3,3-dimethyl-2-carbonyl-1-(2-(thien-3-yl)ethyl) indolin-6-carboxamide], the IC50 turned out to be 0.00174 µM in assay [2] and 0.0714 µM in assay [3].

In the case of `O=C(Nc1c[nH]c2ccccc12)c1ccc2c(c1)SCC(=O)N2Cc1ccc2c(c1)OCO2` [Example I-66, 4-(benzo[d][1,3]dioxolan-5-ylmethyl)-N-(1H-indol-3-yl)-3-oxo-3,4-dihydro-2H-benzo[b][1,4]thiazin-7-carboxamide], the IC50 in assay [1] was found to be 0.073 µM. That is a double-digit nanomolar value.

With `CC1(C)C(=O)N(Cc2ccsc2)c2cc(C(=O)Nc3c[nH]c4ccccc34)sc21` [Example I-85, N-(1H-indol-3-yl)-6,6-dimethyl-5-oxo-4-(thien-3-ylmethyl)-5,6-dihydro-4H-thieno[3,2-b]pyrrol-2-carboxamide], the IC50 in assay [2] was found to be 0.0194 µM; in assay [3], 0.0165 µM.

In the case of `O=C(Nc1c[nH]c2ccc(Cl)cc12)c1cc2c(s1)SCC(=O)N2Cc1cc(F)cc(C(F)(F)F)c1` [Example I-123, N-(5-chloro-1H-indol-3-yl)-1-(3-fluoro-5-(trifluoromethyl)benzyl)-2-oxo-2,3-dihydro-1H-thieno[2,3-b][1,4]thiazin-6-carboxamide], the results for the IC50 in assay [2] and in assay [3] were 0.00571 µM and 0.069 µM, respectively.

As to `CC1(C)C(=O)N(Cc2ccc3c(c2)OCO3)c2cc(C(=O)Nc3c[nH]c4ccccc34)ccc21` [Example I-92, 1-(benzo[d][1,3]dihydroxyl-5-ylmethyl)-N-(1H-indol-3-yl)-3,3-dimethyl-2-oxoindol-6-carboxamide], the IC50 in assay [2] turned out to be 0.094 µM; in assay [3], 0.0288 µM.

As for `O=C(Nc1c[nH]c2ccccc12)c1cc2c(s1)SCC(=O)N2Cc1ccco1` [Example I-118, 1-(furan-2-ylmethyl)-N-(1H-indol-3-yl)-2-oxo-2,3-dihydro-1H-thieno[2,3-b] [1,4]thiazin-6-carboxamide], the results for the half-maximal inhibitory concentration (IC50) in assay [2] and in assay [3] were 0.0452 µM and 0.232 µM, respectively.

In turn, `O=C(Nc1c[nH]c2ccccc12)c1ccc2c(c1)N(Cc1ccco1)C(=O)CS2` [Example I-60, 4-(furan-2-ylmethyl)-N-(1H-indol-3-yl)-3-oxo-3,4-dihydro-2H-benzo[b][1,4]thiazin-6-carboxamide] had an IC50 in assay [1] of 0.042 µM.

As to `O=C(Nc1c[nH]c2ccccc12)c1ccc2c(c1)N(Cc1cccs1)C(=O)CS2` [Example I-59, N-(1H-indol-3-yl)-3-oxo-4-(thien-2-ylmethyl)-3,4-dihydro-2H-benzo[b][1,4]thiazin-6-carboxamide], the IC50 in assay [1] was determined as 0.025 µM. Compared with the last molecule, the IC50 is about 1.7-fold lower.

With `O=C(Nc1c[nH]c2cc(F)c(F)cc12)c1cc2c(s1)SCC(=O)N2Cc1cc(F)cc(C(F)(F)F)c1` [Example I-125, N-(5,6-difluoro-1H-indol-3-yl)-1-(3-fluoro-5-(trifluoromethyl)benzyl)-2-oxo-2,3-dihydro-1H-thieno[2,3-b][1,4]thiazin-6-carboxamide], the IC50 in assay [2] was 0.00526 µM; in assay [3], 0.0766 µM.

As for `CC1(C)C(=O)N(Cc2cccc3ccoc23)c2cc(C(=O)Nc3c[nH]c4ccccc34)ccc21` [Example I-97, 1-(benzofuran-7-ylmethyl)-N-(1H-indol-3-yl)-3,3-dimethyl-2-oxoindolin-6-carboxamide], the IC50 in assay [2] came to 0.0171 µM; in assay [3], 0.0033 µM.

With `O=C(Nc1c[nH]c2ccc(F)cc12)c1cc2c(s1)SCC(=O)N2Cc1ccco1` [Example I-121, N-(5-fluoro-1H-indol-3-yl)-1-(furan-2-ylmethyl)-2-oxo-2,3-dihydro-1H-thieno[2,3-b][1,4]thiazin-6-carboxamide], the IC50 was determined as 0.0317 µM in assay [2] and 0.268 µM in assay [3].

Take `CC1(C)C(=O)N(Cc2csc(Cl)c2)c2cc(C(=O)Nc3c[nH]c4ccccc34)ccc21` [Example I-84, 1-((5-chlorothien-3-yl)methyl)-N-(1H-indol-3-yl)-3,3-dimethyl-2-oxoindolin-6-carboxamide]: the results for the IC50 in assay [2] and in assay [3] were 0.00469 µM and 0.0205 µM, respectively.
